Assay results reported in patent publication US20110218515A1, “Methods for Treating Acute Myocardial Infarctions and Associated Disorders” (The Regents of the University of California, priority 2009, published 2011).
“Also recorded” adds a separate entry of the source.

Legend:
[1] = tested on: congestive heart failure dogs, coronary perfused left ventricular preparation; assay: VF organization index analysis, pacing-induced heart failure dogs; type: in vivo; set-up: key to OI Spatial CoV / OI Temporal CoV: coefficient of variance = SD/mean; details: CHF dogs with PFD
Excerpt: (§1) Animal Models: Twenty-four dogs weighing 25-30 Kg were divided into three groups: control (n=11), congestive heart failure (n=7), and congestive heart failure with the antifibrotic drug pirfenidone (n=6). Heart Failure (CHF) was induced in 7 dogs via four weeks of rapid ventricular pacing via a lead placed in the RV and pulse generator set to pace at 240 bpm followed by ablation of the AV node to create complete heart block, as described in Li, et al., Circulation 1999; 100:87-95. Ventricular function was monitored weekly with transthoracic echocardiography for 4 weeks. At 4 weeks, the optical mapping study was performed.
(§2) Heart Failure with Pirfenidone (PFD): Heart failure was induced in 6 dogs as described above and PFD was administered as described in Lee et al., Circulation 2006; 114; 1703-12. Oral PFD (800 mg 3 times per day; InterMune, Brisbane, Calif.) was started 2 days before the initiation of pacing and was discontinued >6 half-lives (24 hours) before the optical mapping study.
With an optical mapping system described in Wu et al., J Cardiovasc Electrophysiol 1998; 9:1336-47, optical recordings were then made from 4-cm^2 area on 3 surfaces of the preparation (epicardial, endocardial (including the papillary muscle, and transmural) by a 16×16 photodiode array (C4657 Hamamatsu, Bridgewater, N.J.) that recorded 256 simultaneous optical action potentials. During optical recordings from a preparation, contractility was blocked with 15 mM 2,3-butadione monoxime (BDM; Sigma-Aldrich)11. Plunge electrodes were placed on the recording surface around the field of view for both pacing and monitoring. Two plunge electrodes were dedicated for recording a bipolar signal for monitoring the electrical activity of the preparation. VF was initiated with either extra stimuli or with rapid burst pacing at a cycle length of 50 ms, a pulse width of 9.9 ms, and an output of 9.9 mA. Several 4-s episodes of VF were recorded on each surface in each preparation. Activation movies of the VF were then viewed, and the activation patterns were determined. After termination of VF, signals were obtained during pacing at 250 ms and isochronal maps of activation were constructed to look at conduction. Activation patterns and wave-front direction during VF were determined from raw fluorescence movies (isopotential). […] VF was defined as rapid and irregular activations on the bipolar signal used for monitoring the electrical activity of the preparation.
Signal Processing and Frequency Domain Analysis: The signals obtained from the optical mapping recordings were sampled at 2,000 Hz, and for each signal the dominant frequency (DF) was determined and the organization was calculated as described Everett, et al., IEEE Trans Biomed Eng 2001; 48:969-78. Briefly, a fast Fourier transform (FFT) was calculated on the digitally filtered waveform. The data were detrended and multiplied by a Hamming window. The largest peak of the resulting magnitude spectrum was identified, and the positions of the harmonic peaks were determined on the basis of its position. The areas under the largest peak and three of its harmonic peaks were each calculated over a 1-Hz window. This produced an area under four peaks. The total area of the spectrum was calculated from 2 Hz up to but not including the fifth harmonic peak. The ratio of the power under the harmonic peaks to the total power in this range was calculated, and the resulting number was defined as the organization index (OI). The OI was theorized to represent the organization of AF for that signal at that period in time. To calculate the variance of the DFs, spatial coefficient of variance (SD/mean) of the DFs during a single episode of AF among all recording sites and temporal coefficient of variance of average DFs from among AF episodes for each mapping field within each preparation were calculated. Discrete, stable, high frequency areas were noted. […]

[2] = tested on: congestive heart failure dogs, coronary perfused left ventricular preparation; assay: Ventricular fibrillation optical mapping, activation patterns, pacing-induced heart failure dogs; type: in vivo
Excerpt: as §1, §2
Optical Mapping Studies: A coronary perfused left ventricular preparation was used as described in Wu et al., J Cardiovasc Electrophysiol 1998; 9:1336-47. Briefly, following sedation with sodium pentothal (0.25 mg/Kg), a left lateral thoracotomy is performed and the heart was rapidly excised. It was then perfused with cardioplegic solution ((in mmol/L): NaCl 123, KCl 15, NaHCO3 22, NaH2PO4 0.65, MgCl2 0.50, glucose 5.5, CaCl2 2, bubbled with 95% O2/5% CO2) retrogradely through the aorta. The ventricles were removed at approximately 1 cm below the AV ring and the left anterior descending coronary artery (LAD) was perfused. The right ventricle was removed and the left ventricle was cut to the size that was perfused by the LAD and included a papillary muscle. All ventricular branches were then ligated.
The ventricular preparation was then transferred to a tissue chamber maintained at 37° C. The perfusion line in the LAD was perfused with modified Tyrode's solution ((in mmol/L): NaCl 123, KCl 5.4, NaHCO3 22, NaH2PO4 0.65, MgCl2 0.50, glucose 5.5, CaCl2 2, bubbled with 95% O2/5% CO2). Prior to optical recordings, a bolus of 30-40 μl of the voltage sensitive dye PGH-1 was injected directly into the perfusate.
With an optical mapping system described in Wu et al., J Cardiovasc Electrophysiol 1998; 9:1336-47, optical recordings were then made from 4-cm^2 area on 3 surfaces of the preparation (epicardial, endocardial (including the papillary muscle, and transmural) by a 16×16 photodiode array (C4657 Hamamatsu, Bridgewater, N.J.) that recorded 256 simultaneous optical action potentials. During optical recordings from a preparation, contractility was blocked with 15 mM 2,3-butadione monoxime (BDM; Sigma-Aldrich)11. Plunge electrodes were placed on the recording surface around the field of view for both pacing and monitoring. Two plunge electrodes were dedicated for recording a bipolar signal for monitoring the electrical activity of the preparation. VF was initiated with either extra stimuli or with rapid burst pacing at a cycle length of 50 ms, a pulse width of 9.9 ms, and an output of 9.9 mA. Several 4-s episodes of VF were recorded on each surface in each preparation. Activation movies of the VF were then viewed, and the activation patterns were determined. […] Activation patterns and wave-front direction during VF were determined from raw fluorescence movies (isopotential). […]

[3] = CHF dogs, oral PFD 800 mg 3 times per day, one line per dog, listed as PFD

Cc1ccc(=O)n(-c2ccccc2)c1 [pirfenidone]
Max OI ([1]; Endocardium): 0.61 ± 0.05 | Mean OI ([1]; Endocardium): 0.45 ± 0.05 | OI Spatial CoV ([1]; Endocardium): 0.16 ± 0.03 | OI Temporal CoV ([1]; Endocardium): 0.13 ± 0.01 | Max OI ([1]; Epicardium): 0.62 ± 0.05 | Mean OI ([1]; Epicardium): 0.44 ± 0.05 | OI Spatial CoV ([1]; Epicardium): 0.17 ± 0.01 | OI Temporal CoV ([1]; Epicardium): 0.14 ± 0.01 | Max OI ([1]; Transmural): 0.65 ± 0.06 | Mean OI ([1]; Transmural): 0.48 ± 0.05 | OI Spatial CoV ([1]; Transmural): 0.17 ± 0.03 | OI Temporal CoV ([1]; Transmural): 0.13 ± 0.01 | mapped epicardial surfaces having either focal activation or a spiral wave ([2]; CHF dogs with PFD): 2/6 | mapped transmural surfaces with spiral wave activation pattern correlated to stable high DF areas ([2]; CHF dogs with PFD): 50% | VF Activation Patterns, Endocardial [2, 3]: either multiple or broad wavefront activation; also recorded: multiple wave; also recorded: broad wavefront | VF Activation Patterns, Epicardial [2, 3]: multiple wave; also recorded: focal | VF Activation Patterns, Transmural [2, 3]: spiral wave; also recorded: multiple wave
